Values of other authors in US20190015446A1, “MEDICINAL COMPOSITION FOR IMPROVING PROGNOSIS AFTER RESTART OF PATIENT'S OWN HEARTBEAT” (KEIO UNIVERSITY, priority 2015, published 2019).

Legend:
healthy persons = conditions: hydrogen gas 49%
[1] = system: rats after cardiopulmonary arrest resuscitation; conditions: inhalation from before to immediately after return of spontaneous circulation

[HH] [hydrogen gas]
Adverse reaction on inhalation (healthy persons): no adverse reaction
Brain and heart functions and vital prognosis after cardiopulmonary arrest resuscitation [1]: can improve brain and heart functions and vital prognosis
